Source: PubChem BioAssay (NCI)
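How tested: cells in 96-well plates exposed to compound for 48 hours at five concentrations. At the GI50, growth is halved. TGI is the concentration that stops growth completely.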

Tests used:
Test in all cases: inhibition of tumour cell growth, NCI panel, 48 h; in the data active = GI50 below about 0.43 µM; inactive = the rest
UACC-62 melanoma = tested on: UACC-62 melanoma
MALME-3M melanoma = tested on: MALME-3M melanoma
MDA-MB-231 breast = tested on: MDA-MB-231 breast
EKVX NSCLC = tested on: EKVX NSCLC
HCC-2998 colon = tested on: HCC-2998 colon
MOLT-4 leukemia = tested on: MOLT-4 leukemia
K-562 leukemia = tested on: K-562 leukemia
T-47D breast = tested on: T-47D breast
TK-10 renal = tested on: TK-10 renal
UACC-257 melanoma = tested on: UACC-257 melanoma
KM12 colon = tested on: KM12 colon
OVCAR-8 ovarian = tested on: OVCAR-8 ovarian
SN12C renal = tested on: SN12C renal
M14 melanoma = tested on: M14 melanoma
SK-MEL-28 melanoma = tested on: SK-MEL-28 melanoma
U251 CNS = tested on: U251 CNS
SK-MEL-2 melanoma = tested on: SK-MEL-2 melanoma
NCI-H522 lung = tested on: NCI-H522 lung
DU-145 prostate = tested on: DU-145 prostate
CCRF-CEM leukemia = tested on: CCRF-CEM leukemia
786-0 renal = tested on: 786-0 renal
HT29 colon = tested on: HT29 colon
SW-620 colon = tested on: SW-620 colon
OVCAR-4 ovarian = tested on: OVCAR-4 ovarian
HL-60(TB) leukemia = tested on: HL-60(TB) leukemia
NCI-H226 lung = tested on: NCI-H226 lung
SF-268 CNS = tested on: SF-268 CNS
MCF7 breast = tested on: MCF7 breast
RXF 393 renal = tested on: RXF 393 renal
SNB-75 CNS = tested on: SNB-75 CNS
HOP-92 NSCLC = tested on: HOP-92 NSCLC
NCI-H460 lung = tested on: NCI-H460 lung
SNB-19 CNS = tested on: SNB-19 CNS
COLO 205 colon = tested on: COLO 205 colon
HCT-15 colon = tested on: HCT-15 colon
PC-3 prostate = tested on: PC-3 prostate
IGROV1 ovarian = tested on: IGROV1 ovarian
A549 NSCLC = tested on: A549 NSCLC
SR leukemia = tested on: SR leukemia
NCI-H23 lung = tested on: NCI-H23 lung
SK-OV-3 ovarian = tested on: SK-OV-3 ovarian
RPMI-8226 leukemia = tested on: RPMI-8226 leukemia
HOP-62 NSCLC = tested on: HOP-62 NSCLC
UO-31 renal = tested on: UO-31 renal
SK-MEL-5 melanoma = tested on: SK-MEL-5 melanoma
OVCAR-5 ovarian = tested on: OVCAR-5 ovarian
NCI/ADR-RES ovarian = tested on: NCI/ADR-RES ovarian
HCT-116 colon = tested on: HCT-116 colon
SF-539 CNS = tested on: SF-539 CNS
ACHN renal = tested on: ACHN renal
HS 578T breast = tested on: HS 578T breast
A498 renal = tested on: A498 renal
SF-295 CNS = tested on: SF-295 CNS
OVCAR-3 ovarian = tested on: OVCAR-3 ovarian
LOX IMVI melanoma = tested on: LOX IMVI melanoma
BT-549 breast = tested on: BT-549 breast
MDA-MB-435 = tested on: MDA-MB-435
CAKI-1 renal = tested on: CAKI-1 renal

Cc1nnc2sc(Cc3cnc(N)s3)nn12
> 100 µM: TGI (UACC-62 melanoma) | TGI (MALME-3M melanoma) | TGI (MDA-MB-231 breast) | TGI (EKVX NSCLC) | TGI (HCC-2998 colon) | TGI (MOLT-4 leukemia) | TGI (K-562 leukemia) | TGI (T-47D breast) | TGI (TK-10 renal) | TGI (UACC-257 melanoma) | TGI (KM12 colon) | TGI (OVCAR-8 ovarian) | TGI (SN12C renal) | TGI (M14 melanoma) | TGI (SK-MEL-28 melanoma) | TGI (U251 CNS) | TGI (SK-MEL-2 melanoma) | TGI (NCI-H522 lung) | TGI (DU-145 prostate) | TGI (CCRF-CEM leukemia) | TGI (786-0 renal) | TGI (HT29 colon) | TGI (SW-620 colon) | TGI (OVCAR-4 ovarian) | TGI (HL-60(TB) leukemia) | TGI (NCI-H226 lung) | TGI (SF-268 CNS) | TGI (MCF7 breast) | TGI (RXF 393 renal) | TGI (SNB-75 CNS) | TGI (HOP-92 NSCLC) | TGI (NCI-H460 lung) | TGI (SNB-19 CNS) | TGI (COLO 205 colon) | TGI (HCT-15 colon) | TGI (PC-3 prostate) | TGI (IGROV1 ovarian) | TGI (A549 NSCLC) | TGI (SR leukemia) | TGI (NCI-H23 lung) | TGI (SK-OV-3 ovarian) | TGI (RPMI-8226 leukemia) | TGI (HOP-62 NSCLC) | TGI (UO-31 renal) | TGI (SK-MEL-5 melanoma) | TGI (OVCAR-5 ovarian) | TGI (NCI/ADR-RES ovarian) | TGI (HCT-116 colon) | TGI (SF-539 CNS) | TGI (ACHN renal) | TGI (HS 578T breast)

Cn1cc(-c2ccc(-c3cn(C)c4ncccc34)[nH]2)c2cccnc21
6.88 µM: TGI (RPMI-8226 leukemia)
8.03 µM: TGI (SNB-19 CNS)
6.42 µM: TGI (HS 578T breast)
3.17 µM: TGI (U251 CNS)
5.34 µM: TGI (SW-620 colon)
3.3 µM: TGI (OVCAR-3 ovarian)
3.97 µM: TGI (M14 melanoma)
12.7 µM: TGI (NCI-H23 lung)
4.08 µM: TGI (MDA-MB-231 breast)
7.56 µM: TGI (CCRF-CEM leukemia)
3.34 µM: TGI (EKVX NSCLC)
24.8 µM: TGI (HOP-62 NSCLC)
12.4 µM: TGI (HCT-116 colon)
3.59 µM: TGI (OVCAR-5 ovarian)
4.34 µM: TGI (SNB-75 CNS)
3.65 µM: TGI (RXF 393 renal)
3.38 µM: TGI (PC-3 prostate)
8.11 µM: TGI (K-562 leukemia)
3.84 µM: TGI (COLO 205 colon)
3.32 µM: TGI (SF-539 CNS)
4.03 µM: TGI (CAKI-1 renal)
5.45 µM: TGI (SF-268 CNS)
19.6 µM: TGI (UACC-257 melanoma)
9.59 µM: TGI (NCI/ADR-RES ovarian)
4.63 µM: TGI (HCT-15 colon)
3.08 µM: TGI (ACHN renal)
2.13 µM: TGI (HOP-92 NSCLC)
active: GI50 (NCI-H522 lung) 0.19 µM
3.01 µM: TGI (UO-31 renal)
3.47 µM: TGI (SK-MEL-5 melanoma)
> 22.1 µM: TGI (SR leukemia)
6.45 µM: TGI (OVCAR-8 ovarian)
inactive: GI50 (UACC-62 melanoma) 1.63 µM | GI50 (MALME-3M melanoma) 2.7 µM | GI50 (MDA-MB-231 breast) 1.79 µM | GI50 (EKVX NSCLC) 1.62 µM | GI50 (HCC-2998 colon) 2.51 µM | GI50 (MOLT-4 leukemia) 10.2 µM | GI50 (K-562 leukemia) 1.76 µM | GI50 (TK-10 renal) 1.48 µM | GI50 (UACC-257 melanoma) 2.93 µM | GI50 (KM12 colon) 2.02 µM | GI50 (OVCAR-8 ovarian) 2.44 µM | GI50 (SN12C renal) 7.26 µM | GI50 (M14 melanoma) 1.94 µM | GI50 (SK-MEL-28 melanoma) 3.33 µM | GI50 (U251 CNS) 1.66 µM | GI50 (SK-MEL-2 melanoma) 1.91 µM | GI50 (DU-145 prostate) > 100 µM | GI50 (CCRF-CEM leukemia) 2.27 µM | GI50 (786-0 renal) 4.64 µM | GI50 (A498 renal) > 26.3 µM | GI50 (HT29 colon) 10 µM | GI50 (SW-620 colon) 2.32 µM | GI50 (OVCAR-4 ovarian) 0.638 µM | GI50 (SF-295 CNS) 4.28 µM | GI50 (OVCAR-3 ovarian) 1.63 µM | GI50 (HL-60(TB) leukemia) 1.87 µM | GI50 (NCI-H226 lung) > 67.1 µM | GI50 (SF-268 CNS) 2.23 µM | GI50 (MCF7 breast) 5.54 µM | GI50 (LOX IMVI melanoma) 2 µM | GI50 (RXF 393 renal) 1.52 µM | GI50 (SNB-75 CNS) 1.82 µM | GI50 (HOP-92 NSCLC) 0.448 µM | GI50 (NCI-H460 lung) 10 µM | GI50 (SNB-19 CNS) 2.65 µM | GI50 (COLO 205 colon) 1.82 µM | GI50 (HCT-15 colon) 1.69 µM | GI50 (PC-3 prostate) 1.43 µM | GI50 (IGROV1 ovarian) 4.5 µM | GI50 (A549 NSCLC) 7.84 µM | GI50 (SR leukemia) 1.62 µM | GI50 (NCI-H23 lung) 3.18 µM | GI50 (BT-549 breast) 1.07 µM | GI50 (SK-OV-3 ovarian) 25.1 µM | GI50 (RPMI-8226 leukemia) 1.94 µM | GI50 (HOP-62 NSCLC) 3.02 µM | GI50 (UO-31 renal) 1.57 µM | GI50 (SK-MEL-5 melanoma) 1.6 µM | GI50 (OVCAR-5 ovarian) 1.65 µM | GI50 (MDA-MB-435) 24 µM | GI50 (NCI/ADR-RES ovarian) 2.93 µM | GI50 (HCT-116 colon) 2.81 µM | GI50 (CAKI-1 renal) 1.44 µM | GI50 (SF-539 CNS) 1.59 µM | GI50 (ACHN renal) 1.62 µM | GI50 (HS 578T breast) 1.95 µM
4.23 µM: TGI (KM12 colon)
7.48 µM: TGI (HL-60(TB) leukemia)
7.12 µM: TGI (MALME-3M melanoma)
53.4 µM: TGI (IGROV1 ovarian)
2.88 µM: TGI (TK-10 renal)
> 100 µM: TGI (MOLT-4 leukemia) | TGI (SN12C renal) | TGI (DU-145 prostate) | TGI (A498 renal) | TGI (HT29 colon) | TGI (NCI-H226 lung) | TGI (MCF7 breast) | TGI (NCI-H460 lung) | TGI (A549 NSCLC) | TGI (SK-OV-3 ovarian) | TGI (MDA-MB-435)
0.451 µM: TGI (NCI-H522 lung)
1.61 µM: TGI (OVCAR-4 ovarian)
3.76 µM: TGI (UACC-62 melanoma)
5.89 µM: TGI (HCC-2998 colon)
4.04 µM: TGI (SK-MEL-2 melanoma)
38.6 µM: TGI (786-0 renal)
3.93 µM: TGI (LOX IMVI melanoma)
10.9 µM: TGI (SK-MEL-28 melanoma)
12.1 µM: TGI (SF-295 CNS)
2.79 µM: TGI (BT-549 breast)
